Data published in US20240116985A1, “STAPLED PEPTIDES AND METHODS THEREOF” (priority 2020, published 2024).
pIC50: −log10 of the molar value. Like-named read-outs stand apart in the source and are kept apart here.

Experiments:
COLO320DM cells = assay type: cell-based; conditions: COLO320DM cells, absolute IC50; read-out: COLO320DM Proliferation Abs IC50
Experimental: COLO320DM proliferation assay IC50: In some embodiments, inhibition of cell proliferation by provided technologies were assessed using cell lines related to or from certain conditions, disorders or diseases. In some embodiments, cell proliferation was assessed in COLO320DM cells. In some embodiments, assessment was performed using the following procedure: On Day 1, cultured COLO320DM cells in a T75 flask were trypsinized in 3 mL of 0.25% trypsin/EDTA for 5 min and quenched with 10 mL RPMI-1640+4% HI FBS assay media. The cells were spun down at 1200 rpm for 5 min, the cell pellet collected and re-suspended at 5000 cells/mL in assay media. Using a Combi liquid handler, cells were dispensed (50 uL, 250 cells/well) into three 384 well plates. Plates were incubated at 37° C., […]. On day 2, compounds were added. A liquid handling system was used to prepare the compound dilution and dispense compound into assay plates. The compounds were serially diluted 1/2 in 90% DMSO to create a 7 point dose curve. From compound plate, 100 nL of compound were dispensed directly into wells of the assay plates to create a dose curve starting at 20 uM and ending at 313 nM. Assay plates were incubated at 37° C., […]. On day 6, assay plates were removed from the incubator and allowed to sit at room temperature for 30 min. Using a liquid handler, 20 uL of CellTiter Glo reagent was added to each well. The assay plates were shaken for 2 min and allowed to sit on the bench for 10-15 minutes. The assay plates were read using the CellTiter Glo protocol on a GloMax microplate reader, and the data analyzed using GraphPad Prism.

[1] = biological target: T1, beta-catenin/TCF4 engagement (Homo sapiens, UniProt P35222); test: Nano-BRET target engagement assay (B-cat-Halo & TCF4-Luc in HEK293 cells); assay type: cell-based; conditions: absolute IC50; for pIC50: read-out: NanoBRET Abs IC50
T1 construct: expressed in transfected cells; host or cells: HEK293
T1 sequence (P35222 1-781): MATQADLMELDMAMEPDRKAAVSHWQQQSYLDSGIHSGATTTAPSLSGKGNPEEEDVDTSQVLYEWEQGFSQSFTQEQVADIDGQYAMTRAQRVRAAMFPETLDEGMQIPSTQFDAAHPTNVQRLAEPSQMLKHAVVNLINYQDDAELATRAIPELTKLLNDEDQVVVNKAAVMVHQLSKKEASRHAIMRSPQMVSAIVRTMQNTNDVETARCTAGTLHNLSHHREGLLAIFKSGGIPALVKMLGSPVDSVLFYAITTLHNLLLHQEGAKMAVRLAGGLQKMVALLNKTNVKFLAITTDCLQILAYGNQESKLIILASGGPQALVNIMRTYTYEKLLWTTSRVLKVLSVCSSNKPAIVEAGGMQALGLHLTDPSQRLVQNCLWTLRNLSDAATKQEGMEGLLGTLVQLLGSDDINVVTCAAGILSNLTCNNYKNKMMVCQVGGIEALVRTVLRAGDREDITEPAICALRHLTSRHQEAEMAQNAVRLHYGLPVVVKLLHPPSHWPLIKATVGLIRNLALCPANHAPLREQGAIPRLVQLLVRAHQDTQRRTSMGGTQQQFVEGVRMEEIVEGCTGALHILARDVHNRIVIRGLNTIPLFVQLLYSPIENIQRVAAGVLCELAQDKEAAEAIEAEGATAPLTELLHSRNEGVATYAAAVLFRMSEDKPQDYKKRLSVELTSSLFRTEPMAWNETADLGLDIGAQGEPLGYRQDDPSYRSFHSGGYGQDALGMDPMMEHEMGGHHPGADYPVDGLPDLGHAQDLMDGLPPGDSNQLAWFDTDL

[2] = biological target: T2, full-length beta-Catenin (Uniprot ID P35222) (Homo sapiens, UniProt P35222); test: Fluorescence polarization IC50 (beta-catenin / 5FAM-TCF4 10-53 competition); assay type: binding; conditions: fluorescence polarization; for pIC50: read-out: beta-Catenin FP IC50
T2 construct: 10 nM full-length beta-Catenin (Uniprot ID P35222)
T2 sequence (P35222 1-781): T1 sequence (P35222 1-781)

Compound | pIC50 (COLO320DM cells) | pIC50 [1] | pIC50 [2] | IC50 ([1]; NanoBRET Abs IC50 (uM)) | IC50 ([2]; beta-Catenin FP IC50 (nM))
CC(=O)N1CCC[C@]12CC=CCCCC1(CCCC=CCCCOC(=O)N3CC[C@@](C(=O)N[C@@H](Cc4ccsc4)C(=O)N[C@@H](Cc4csc5ccccc45)C(=O)N[C@@H](CC(N)=O)C(=O)N[C@@H](C)C(=O)N[C@@H](C)C(=O)N[C@@H](C)C(=O)N[C@@H](C)C(=O)N[C@@H](C)C(N)=O)(C3)NC(=O)[C@H](CC(C)C)NC(=O)[C@H](Cc3ccccc3)NC(=O)[C@H](C)NC(=O)[C@H](C)NC(=O)[C@H](Cc3cccc(C(=O)O)c3)NC(=O)[C@H](CC(=O)O)NC1=O)NC(=O)[C@H](CC(C)(C)C)NC(=O)[C@H](CC(=O)O)NC2=O (stereo partly drawn) [I-2268, Ac-PL3-Asp-Npg-B5-Asp-3COOHF-Ala-Ala-Phe-Leu-PyrS2-3Thi-BztA-Asn-Ala-Ala-Ala-Ala-Ala-NH2] | 5.37 | 5.51 | 7.89 | – | –
CC(=O)N1CCC[C@]12CC=CCCCC1(CCCC=CCCCOC(=O)N3CC[C@@](C(=O)N[C@@H](Cc4ccsc4)C(=O)N[C@@H](Cc4csc5ccccc45)C(=O)N[C@@H](CC(N)=O)C(=O)N[C@@H](C)C(=O)N[C@@H](C)C(=O)N[C@@H](C)C(=O)N[C@@H](C)C(=O)N[C@@H](C)C(=O)N[C@@H](C)C(=O)N[C@@H](C)C(N)=O)(C3)NC(=O)[C@H](CC(C)C)NC(=O)[C@H](Cc3ccccc3)NC(=O)[C@H](C)NC(=O)[C@H](C)NC(=O)[C@H](Cc3cccc(C(=O)O)c3)NC(=O)[C@H](CC(=O)O)NC1=O)NC(=O)[C@H](CC(C)(C)C)NC(=O)[C@H](CC(=O)O)NC2=O (stereo partly drawn) [I-2269] | 5.41 | – | – | 2.3 µM | 20 nM
CC(=O)N1CCC[C@]12CC=CCCCC1(CCCC=CCCCOC(=O)N3CC[C@@](C(=O)N[C@@H](Cc4ccsc4)C(=O)N[C@@H](Cc4csc5ccccc45)C(=O)N[C@@H](CC(N)=O)C(=O)N[C@@H](C)C(=O)NC(C)(C)C(=O)N[C@@H](C)C(N)=O)(C3)NC(=O)[C@H](CC(C)C)NC(=O)[C@H](Cc3ccccc3)NC(=O)[C@H](C)NC(=O)[C@H](C)NC(=O)[C@H](Cc3cccc(C(=O)O)c3)NC(=O)[C@H](CC(=O)O)NC1=O)NC(=O)[C@H](CC(C)(C)C)NC(=O)[C@H](CC(=O)O)NC2=O (stereo partly drawn) [I-2271, Ac-PL3-Asp-Npg-B5-Asp-3COOHF-Ala-Ala-Phe-Leu-PyrS2-3Thi-BztA-Asn-Ala-Aib-Ala-NH2] | 5.05 | 5.64 | 7.89 | – | –
CC(=O)N1CCC[C@]12CC=CCCCC1(CCCC=CCCCOC(=O)N3CC[C@@](C(=O)N[C@@H](Cc4ccsc4)C(=O)N[C@@H](Cc4csc5ccccc45)C(=O)N[C@@H](CC(N)=O)C(=O)N[C@@H](CC(C)C)C(N)=O)(C3)NC(=O)[C@H](CC(C)C)NC(=O)[C@H](Cc3ccccc3)NC(=O)[C@H](C)NC(=O)[C@H](C)NC(=O)[C@H](Cc3cccc(C(=O)O)c3)NC(=O)[C@H](CC(=O)O)NC1=O)NC(=O)[C@H](CC(C)(C)C)NC(=O)[C@H](CC(=O)O)NC2=O (stereo partly drawn) [I-2274, Ac-PL3-Asp-Npg-B5-Asp-3COOHF-Ala-Ala-Phe-Leu-PyrS2-3Thi-BztA-Asn-Leu-NH2] | 5.21 | 5.70 | 8.00 | – | –
CC(=O)N1CCC[C@]12CC=CCCCC1(CCCC=CCCCOC(=O)N3CC[C@@](C(=O)N[C@@H](Cc4ccccc4C(F)(F)F)C(=O)N[C@@H](Cc4csc5ccccc45)C(=O)N[C@@H](CCC(=O)N(C)C)C(N)=O)(C3)NC(=O)[C@H](CC(C)C)NC(=O)[C@H](Cc3ccccc3)NC(=O)[C@H](C)NC(=O)[C@H](CCC(=O)N(C)C)NC(=O)[C@H](Cc3cccc(C(=O)O)c3)NC(=O)[C@H](CC(=O)O)NC1=O)NC(=O)[C@H](CC(C)(C)C)NC(=O)[C@H](CC(=O)O)NC2=O (stereo partly drawn) [I-2300, Ac-PL3-Asp-Npg-B5-Asp-3COOHF-[NMe2]GlnR-Ala-Phe-Leu-PyrS2-2F3MeF-BztA-INMe2]GlnR-NH2] | < 4.70 | 5.92 | 8.22 | – | –
CC(=O)N1CCC[C@]12CC=CCCCC1(CCCC=CCCCOC(=O)N3CC[C@@](C(=O)N[C@@H](Cc4ccccc4C(F)(F)F)C(=O)N[C@@H](Cc4csc5ccccc45)C(=O)N[C@@H](C)C(N)=O)(C3)NC(=O)[C@H](CC(C)C)NC(=O)[C@H](Cc3ccccc3)NC(=O)[C@H](C)NC(=O)[C@H](CCC(=O)N3CCOCC3)NC(=O)[C@H](Cc3cccc(C(=O)O)c3)NC(=O)[C@H](CC(=O)O)NC1=O)NC(=O)[C@H](CC(C)(C)C)NC(=O)[C@H](CC(=O)O)NC2=O (stereo partly drawn) [I-2315, Ac-PL3-Asp-Npg-B5-Asp-3COOHF-[Morph]GlnR-Ala-Phe-Leu-PyrS2-2F3MeF-BztA-Ala-NH2] | < 4.70 | 5.92 | 8.30 | – | –
CC(=O)N1CCC[C@]12CC=CCCCC1(CCCC=CCCCOC(=O)N3CC[C@@](C(=O)N[C@@H](Cc4ccccc4C(F)(F)F)C(=O)N[C@@H](Cc4csc5ccccc45)C(=O)N[C@@H](C)C(N)=O)(C3)NC(=O)[C@H](CC(C)C)NC(=O)[C@H](Cc3ccccc3)NC(=O)[C@H](C)NC(=O)[C@H](CCC(=O)N3CCN(CC(F)(F)F)CC3)NC(=O)[C@H](Cc3cccc(C(=O)O)c3)NC(=O)[C@H](CC(=O)O)NC1=O)NC(=O)[C@H](CC(C)(C)C)NC(=O)[C@H](CC(=O)O)NC2=O (stereo partly drawn) [I-2316, Ac-PL3-Asp-Npg-B5-Asp-3COOHF-[TfePpz]GlnR-Ala-Phe-Leu-PyrS2-2F3MeF-BztA-Ala-NH2] | < 4.70 | 5.80 | 7.96 | – | –
CC(=O)N1CCC[C@]12CC=CCCCC1(CCCC=CCCCOC(=O)N3CC[C@@](C(=O)N[C@@H](Cc4ccccc4C(F)(F)F)C(=O)N[C@@H](Cc4csc5ccccc45)C(=O)N[C@@H](C)C(N)=O)(C3)NC(=O)[C@H](CC(C)C)NC(=O)[C@H](Cc3ccccc3)NC(=O)[C@H](C)NC(=O)[C@H](CCC(=O)N3CCNC(=O)C3)NC(=O)[C@H](Cc3cccc(C(=O)O)c3)NC(=O)[C@H](CC(=O)O)NC1=O)NC(=O)[C@H](CC(C)(C)C)NC(=O)[C@H](CC(=O)O)NC2=O (stereo partly drawn) [I-2318, Ac-PL3-Asp-Npg-B5-Asp-3COOHF-[2OxoPpz]GlnR-Ala-Phe-Leu-PyrS2-2F3MeF-BztA-Ala-NH2] | < 4.70 | 5.74 | 8.30 | – | –
CC(=O)N1CCC[C@]12CC=CCCCC1(CCCC=CCCCOC(=O)N3CC[C@@](C(=O)N[C@@H](Cc4ccccc4C(F)(F)F)C(=O)N[C@@H](Cc4csc5ccccc45)C(=O)N[C@@H](C)C(N)=O)(C3)NC(=O)[C@H](CC(C)C)NC(=O)[C@H](Cc3ccccc3)NC(=O)[C@H](C)NC(=O)[C@H](CCC(=O)N3Cc4ccccc4C3)NC(=O)[C@H](Cc3cccc(C(=O)O)c3)NC(=O)[C@H](CC(=O)O)NC1=O)NC(=O)[C@H](CC(C)(C)C)NC(=O)[C@H](CC(=O)O)NC2=O (stereo partly drawn) [I-2320, Ac-PL3-Asp-Npg-B5-Asp-3COOHF-[isoindoline]GlnR-Ala-Phe-Leu-PyrS2-2F3MeF-BztA-Ala-NH2] | < 4.70 | 5.57 | 7.54 | – | –
COCCN(CCOC)C(=O)CC[C@@H]1NC(=O)[C@H](Cc2cccc(C(=O)O)c2)NC(=O)[C@H](CC(=O)O)NC(=O)C2(CCCC=CCCCOC(=O)N3CC[C@@](C(=O)N[C@@H](Cc4ccccc4C(F)(F)F)C(=O)N[C@@H](Cc4csc5ccccc45)C(=O)N[C@@H](C)C(N)=O)(C3)NC(=O)[C@H](CC(C)C)NC(=O)[C@H](Cc3ccccc3)NC(=O)[C@H](C)NC1=O)CCCC=CC[C@]1(CCCN1C(C)=O)C(=O)N[C@@H](CC(=O)O)C(=O)N[C@@H](CC(C)(C)C)C(=O)N2 (stereo partly drawn) [I-2322, Ac-PL3-Asp-Npg-B5-Asp-3COOHF-[bismethoxyethylamine]GlnR-Ala-Phe-Leu-PyrS2-2F3MeF-BztA-Ala-NH2] | < 4.70 | 5.74 | 8.15 | – | –
